{"source": "ChEMBL document CHEMBL6103589", "about": "“Synthesis and evaluation of novel ebselen derivatives as urease inhibitors for combating Helicobacter pylori infections” (Eur J Med Chem, 2025)", "key": {"[1]": {"target": "Urease subunit alpha/Urease subunit beta (Helicobacter pylori (strain ATCC 700392 / 26695) (Campylobacterpylori), UniProt P69996)", "sequence (P69996 whole entry)": "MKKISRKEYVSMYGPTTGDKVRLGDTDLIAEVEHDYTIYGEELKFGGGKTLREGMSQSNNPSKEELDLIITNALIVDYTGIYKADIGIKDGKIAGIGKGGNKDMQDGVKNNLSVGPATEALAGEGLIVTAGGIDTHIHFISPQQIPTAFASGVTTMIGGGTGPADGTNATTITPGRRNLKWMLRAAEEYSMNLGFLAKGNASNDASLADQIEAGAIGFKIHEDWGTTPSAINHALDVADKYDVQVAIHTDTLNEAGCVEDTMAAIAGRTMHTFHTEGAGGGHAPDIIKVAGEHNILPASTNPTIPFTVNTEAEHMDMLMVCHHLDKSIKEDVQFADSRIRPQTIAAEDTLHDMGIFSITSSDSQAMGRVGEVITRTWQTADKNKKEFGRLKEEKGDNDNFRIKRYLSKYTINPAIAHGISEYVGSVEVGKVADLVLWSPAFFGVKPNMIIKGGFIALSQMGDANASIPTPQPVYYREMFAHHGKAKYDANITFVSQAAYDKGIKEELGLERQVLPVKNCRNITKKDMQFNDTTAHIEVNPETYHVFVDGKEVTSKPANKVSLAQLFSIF", "sequence (P14916 whole entry, further chain)": "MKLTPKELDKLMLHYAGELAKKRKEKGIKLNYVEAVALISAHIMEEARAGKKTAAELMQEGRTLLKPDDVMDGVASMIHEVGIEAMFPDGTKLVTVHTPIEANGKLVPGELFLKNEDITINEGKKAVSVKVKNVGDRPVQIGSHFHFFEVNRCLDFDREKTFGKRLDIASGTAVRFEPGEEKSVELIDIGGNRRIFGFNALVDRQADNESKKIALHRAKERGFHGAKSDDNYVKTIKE", "assay": "Inhibition of Helicobacter pylori ATCC 43504 urease preincubated for 75 mins followed by urea addition and measured after 30 mins by ELISA", "assay_type": "protein-complex assay"}, "Helicobacter pylori [2]": {"tested_on": "Helicobacter pylori", "assay": "Antibacterial activity against Helicobacter pylori ATCC 43504 incubated for 24 hrs by broth dilution method", "assay_type": "functional", "conditions": "dose 1-64 […]"}, "Helicobacter pylori [3]": {"tested_on": "Helicobacter pylori", "assay": "Protection against Helicobacter pylori ATCC 43504 infected (MOI 400:1) in human GES1 cell injury model assessed as reduction in cell apoptosis rate at 50 uM pre-treated for 2 hrs followed by bacterial infection measured after 6 hrs by Annexin/V-FITC staining based flow cytometry analysis (reference value: 56.03%)", "assay_type": "functional", "design": "scale not given: the % may be the effect or the level left", "conditions": "time 8 hrs"}, "Helicobacter pylori [4]": {"tested_on": "Helicobacter pylori", "assay": "Protection against Helicobacter pylori ATCC 43504 infected (MOI 25:1) in human GES1 cell injury model assessed as late apoptotic cells at 25 uM pre-treated for 2 hrs followed by bacterial infection measured after 6 hrs by Annexin/V-FITC staining based flow cytometry analysis (reference value: 0.31%)", "assay_type": "functional", "conditions": "time 8 hrs"}, "Helicobacter pylori [5]": {"tested_on": "Helicobacter pylori", "assay": "Protection against Helicobacter pylori ATCC 43504 infected (MOI 25:1) in human GES1 cell injury model assessed as early apoptotic cells at 50 uM pre-treated for 2 hrs followed by bacterial infection measured after 6 hrs by Annexin/V-FITC staining based flow cytometry analysis (reference value: 9.89%)", "assay_type": "functional", "conditions": "time 8 hrs"}, "Helicobacter pylori [6]": {"tested_on": "Helicobacter pylori", "assay": "Protection against Helicobacter pylori ATCC 43504 infected (MOI 25:1) in human GES1 cell injury model assessed as late apoptotic cells at 50 uM pre-treated for 2 hrs measured after 6 hrs by Annexin/V-FITC staining based flow cytometry analysis (reference value: 0.31%)", "assay_type": "functional", "conditions": "time 8 hrs"}, "Helicobacter pylori [7]": {"tested_on": "Helicobacter pylori", "assay": "Protection against Helicobacter pylori ATCC 43504 infected (MOI 100:1) in human GES1 cell injury model assessed as late apoptotic cells at 25 uM pre-treated for 2 hrs followed by bacterial infection measured after 6 hrs by Annexin/V-FITC staining based flow cytometry analysis (reference value: 4.16%)", "assay_type": "functional", "conditions": "time 8 hrs"}, "Helicobacter pylori [8]": {"tested_on": "Helicobacter pylori", "assay": "Protection against Helicobacter pylori ATCC 43504 infected (MOI 100:1) in human GES1 cell injury model assessed as necrotic cells at 25 uM pre-treated for 2 hrs followed by bacterial infection measured after 6 hrs by Annexin/V-FITC staining based flow cytometry analysis (reference value: 2.82%)", "assay_type": "functional", "conditions": "time 8 hrs"}, "Helicobacter pylori [9]": {"tested_on": "Helicobacter pylori", "assay": "Protection against Helicobacter pylori ATCC 43504 infected (MOI 100:1) in human GES1 cell injury model assessed as early apoptotic cells at 50 uM pre-treated for 2 hrs followed by bacterial infection measured after 6 hrs by Annexin/V-FITC staining based flow cytometry analysis (reference value: 24.66 %)", "assay_type": "functional", "conditions": "time 8 hrs"}, "Helicobacter pylori [10]": {"tested_on": "Helicobacter pylori", "assay": "Protection against Helicobacter pylori ATCC 43504 infected (MOI 200:1) in human GES1 cell injury model assessed as viable cells at 25 uM pre-treated for 2 hrs followed by bacterial infection measured after 6 hrs by Annexin/V-FITC staining based flow cytometry analysis (reference value: 57.87%)", "assay_type": "functional", "conditions": "time 8 hrs"}, "Helicobacter pylori [11]": {"tested_on": "Helicobacter pylori", "assay": "Protection against Helicobacter pylori ATCC 43504 infected (MOI 200:1) in human GES1 cell injury model assessed as early apoptotic cells at 25 uM pre-treated for 2 hrs followed by bacterial infection measured after 6 hrs by Annexin/V-FITC staining based flow cytometry analysis (reference value: 31.93 %)", "assay_type": "functional", "conditions": "time 8 hrs"}, "Helicobacter pylori [12]": {"tested_on": "Helicobacter pylori", "assay": "Protection against Helicobacter pylori ATCC 43504 infected (MOI 200:1) in human GES1 cell injury model assessed as early apoptotic cells at 50 uM pre-treated for 2 hrs followed by bacterial infection measured after 6 hrs by Annexin/V-FITC staining based flow cytometry analysis (reference value: 31.93 %)", "assay_type": "functional", "conditions": "time 8 hrs"}, "Helicobacter pylori [13]": {"tested_on": "Helicobacter pylori", "assay": "Protection against Helicobacter pylori ATCC 43504 infected (MOI 200:1) in human GES1 cell injury model assessed as necrotic cells at 50 uM pre-treated for 2 hrs followed by bacterial infection measured after 6 hrs by Annexin/V-FITC staining based flow cytometry analysis (reference value: 3.92%)", "assay_type": "functional", "conditions": "time 8 hrs"}, "Helicobacter pylori [14]": {"tested_on": "Helicobacter pylori", "assay": "Protection against Helicobacter pylori ATCC 43504 infected (MOI 300:1) in human GES1 cell injury model assessed as late apoptotic cells at 25 uM pre-treated for 2 hrs followed by bacterial infection measured after 6 hrs by Annexin/V-FITC staining based flow cytometry analysis (reference value: 11.95%)", "assay_type": "functional", "conditions": "time 8 hrs"}, "Helicobacter pylori [15]": {"tested_on": "Helicobacter pylori", "assay": "Protection against Helicobacter pylori ATCC 43504 infected (MOI 300:1) in human GES1 cell injury model assessed as viable cells at 50 uM pre-treated for 2 hrs followed by bacterial infection measured after 6 hrs by Annexin/V-FITC staining based flow cytometry analysis (reference value: 47.43%)", "assay_type": "functional", "conditions": "time 8 hrs"}, "Helicobacter pylori [16]": {"tested_on": "Helicobacter pylori", "assay": "Protection against Helicobacter pylori ATCC 43504 infected (MOI 400:1) in human GES1 cell injury model assessed as late apoptotic cells at 50 uM pre-treated for 2 hrs followed by bacterial infection measured after 6 hrs by Annexin/V-FITC staining based flow cytometry analysis (reference value: 13.62%)", "assay_type": "functional", "conditions": "time 8 hrs"}, "GES1 [17]": {"tested_on": "GES1", "assay": "Induction of ROS generation in human GES1 cells infected (25 to 400:1 MOI) with Helicobacter pylori ATCC 43504 assessed as increase in fluorescence intensity at 25 to 50 uM by DCFH-DA based Immunofluorescence analysis", "assay_type": "functional, cell-based", "conditions": "dose 25-50 µM"}, "GES1 [18]": {"tested_on": "GES1", "assay": "Induction of ROS generation in human GES1 cells infected (25 to 400:1 MOI) with Helicobacter pylori ATCC 43504 assessed as decrease in fluorescence intensity at 25 to 50 uM by DCFH-DA based Immunofluorescence analysis", "assay_type": "functional, cell-based", "conditions": "dose 25-50 µM"}, "Helicobacter pylori [19]": {"tested_on": "Helicobacter pylori", "assay": "In vivo protection against Helicobacter pylori ATCC 43504 infected in BALB/c mouse gastric mucosa model assessed as appearance of intact tissue structure at 25 mg/kg administered once a day for 2 weeks by HE staining based analysis", "assay_type": "functional, organism-based"}, "Helicobacter pylori [20]": {"tested_on": "Helicobacter pylori", "assay": "In vivo protection against Helicobacter pylori ATCC 43504 infected in BALB/c mouse gastric mucosa model assessed as appearance of intact muscularis mucosa at high dose administered once a day for 2 weeks by HE staining based analysis", "assay_type": "functional, organism-based"}, "Helicobacter pylori [21]": {"tested_on": "Helicobacter pylori", "assay": "In vivo protection against Helicobacter pylori ATCC 43504 infected in BALB/c mouse gastric mucosa model assessed as effect on infiltration at high dose administered once a day for 2 weeks by HE staining based analysis", "assay_type": "functional, organism-based"}, "Helicobacter pylori [22]": {"tested_on": "Helicobacter pylori", "assay": "In vivo protection against Helicobacter pylori ATCC 43504 infected in BALB/c mouse gastric mucosa model assessed as effect on inflammatory cell infiltration at low dose administered once a day for 2 weeks by HE staining based analysis", "assay_type": "functional, organism-based"}, "Helicobacter pylori [23]": {"tested_on": "Helicobacter pylori", "assay": "In vivo protection against Helicobacter pylori ATCC 43504 infected in BALB/c mouse gastric mucosa model assessed as effect on hyperplasia at low dose administered once a day for 2 weeks by HE staining based analysis", "assay_type": "functional, organism-based"}, "[24]": {"assay": "Acute toxicity in BALB/c mouse assessed as pathological abnormality in spleen at 1 g/Kg, po single dose administered for 7 days by HE staining based analysis", "assay_type": "organism-based", "conditions": "in vivo, 1000 mg/kg, 168 h, time 7 day"}, "[25]": {"assay": "Acute toxicity in BALB/c mouse assessed as change in body weight at 1 g/Kg, po single dose administered for 7 days", "assay_type": "organism-based", "conditions": "in vivo, 1000 mg/kg, 168 h, time 7 day"}}, "note": "Active and inactive are the calls of the source. The rule behind the calls is not given here.", "data": [{"smiles": "O=C(Oc1n[se]c2ccccc12)c1cccc(F)c1", "values": [{"measurement": "IC50", "setting": "[1]", "value": 140, "unit": "nM"}, {"measurement": "Activity", "setting": "Helicobacter pylori [2]", "value": "Dose-dependent-effect"}, {"measurement": "MIC", "setting": "Helicobacter pylori [2]", "value": 8, "unit": "µg/mL"}, {"measurement": "Activity", "setting": "Helicobacter pylori [3]", "value": 47.7, "unit": "%"}, {"measurement": "Activity", "setting": "Helicobacter pylori [4]", "value": 0.02, "unit": "%"}, {"measurement": "Activity", "setting": "Helicobacter pylori [5]", "value": 0.51, "unit": "%"}, {"measurement": "Activity", "setting": "Helicobacter pylori [6]", "value": 0, "unit": "%"}, {"measurement": "Activity", "setting": "Helicobacter pylori [7]", "value": 0.17, "unit": "%"}, {"measurement": "Activity", "setting": "Helicobacter pylori [8]", "value": 0.43, "unit": "%"}, {"measurement": "Activity", "setting": "Helicobacter pylori [9]", "value": 2.79, "unit": "%"}, {"measurement": "Activity", "setting": "Helicobacter pylori [10]", "value": 87.8, "unit": "%"}, {"measurement": "Activity", "setting": "Helicobacter pylori [11]", "value": 12.06, "unit": "%"}, {"measurement": "Activity", "setting": "Helicobacter pylori [12]", "value": 4.38, "unit": "%"}, {"measurement": "Activity", "setting": "Helicobacter pylori [13]", "value": 0.8, "unit": "%"}, {"measurement": "Activity", "setting": "Helicobacter pylori [14]", "value": 0.02, "unit": "%"}, {"measurement": "Activity", "setting": "Helicobacter pylori [15]", "value": 92.33, "unit": "%"}, {"measurement": "Activity", "setting": "Helicobacter pylori [16]", "value": 0.72, "unit": "%"}, {"measurement": "Activity", "setting": "GES1 [17]", "value": "Active"}, {"measurement": "Activity", "setting": "GES1 [18]", "value": "Active"}, {"measurement": "Activity", "setting": "Helicobacter pylori [19]", "value": "Active"}, {"measurement": "Activity", "setting": "Helicobacter pylori [20]", "value": "Active"}, {"measurement": "Activity", "setting": "Helicobacter pylori [21]", "value": "Active"}, {"measurement": "Activity", "setting": "Helicobacter pylori [22]", "value": "Active"}, {"measurement": "Activity", "setting": "Helicobacter pylori [23]", "value": "inactive"}, {"measurement": "Activity", "setting": "[24]", "value": "Non-toxic"}, {"measurement": "Activity", "setting": "[25]", "value": "Non-toxic"}]}]}
